Conditions: Liquid, Vibrating tube method

COC(=O)c1ccccc1 [methyl benzoate]
mass density [kg/m3]
Conditions	278.15 K	288.15 K	298.15 K	308.15 K	318.15 K	328.15 K	338.15 K	348.15 K	358.15 K
100 kPa	1101.5	1092.1	1082.7	1073	1063.3	1053.6	1044.1	1034.4	1024.9
1000 kPa	1102.1	1092.6	1083.2	1073.6	1063.8	1054.3	1044.8	1035.1	1025.6
5000 kPa	1104.4	1095	1085.8	1076.2	1066.7	1057.2	1048	1038.4	1029.1
10000 kPa	1107.2	1097.9	1089	1079.5	1070.1	1060.8	1051.7	1042.4	1033.3
15000 kPa	1109.9	1100.8	1091.8	1082.6	1073.4	1064.3	1055.3	1046.2	1037.3
20000 kPa	1112.6	1103.6	1094.8	1085.7	1076.6	1067.6	1058.8	1049.8	1041.2
25000 kPa	1115.2	1106.3	1097.6	1088.6	1079.7	1070.9	1062.2	1053.4	1044.9
30000 kPa	1117.7	1109	1100.4	1091.5	1082.8	1074	1065.5	1056.9	1048.5
35000 kPa	1120.2	1111.6	1103.1	1094.3	1085.7	1077.1	1068.8	1060.3	1052
40000 kPa	1122.7	1114.1	1105.7	1097.1	1088.6	1080.1	1071.9	1063.5	1055.4
45000 kPa	1125.1	1116.6	1108.3	1099.8	1091.4	1083	1074.9	1066.7	1058.7
50000 kPa	1127.4	1119.1	1110.9	1102.4	1094.1	1085.9	1077.9	1069.8	1061.9
55000 kPa	1129.7	1121.4	1113.4	1105	1096.8	1088.7	1080.8	1072.8	1065.1
60000 kPa	1131.8	1123.6	1115.6	1107.4	1099.3	1091.2	1083.5	1075.5	1067.9

Source: the NIST ThermoML archive (doi:10.1016/j.jct.2011.02.008)
